In ChEMBL document CHEMBL1201862, “PubChem BioAssay data set” (2004):
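In this assay, cells in 96-well plates receive the compound at five concentrations for 48 hours. Endpoints are linearly interpolated between the surrounding concentrations. GI50: concentration for 50% inhibition of growth.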 Activity calls are given as the source filed them. Cut-off read from the data, not from the text of the source: active = GI50 up to about 1.1 µM and inactive = higher.

Key:
Assay in all cases: NCI tumour cell line growth inhibition, 48 h
UACC-257 = tested on: UACC-257
MCF7 = tested on: MCF7
MDA-MB-435 = tested on: MDA-MB-435
HCT-116 = tested on: HCT-116
HCC 2998 = tested on: HCC 2998
SF-268 = tested on: SF-268
SK-MEL-28 = tested on: SK-MEL-28
HT-29 = tested on: HT-29
RPMI-8226 = tested on: RPMI-8226
IGROV-1 = tested on: IGROV-1
Malme-3M = tested on: Malme-3M
HOP-62 = tested on: HOP-62
A498 = tested on: A498
SF-295 = tested on: SF-295
HL-60 = tested on: HL-60
MOLT-4 = tested on: MOLT-4
SNB-19 = tested on: SNB-19
LOX IMVI = tested on: LOX IMVI
RXF 393 = tested on: RXF 393
EKVX = tested on: EKVX

Measured: GI50

O=C1c2cc3c(cc2CC12Cc1ccc4c(c1C2=O)CCC4)CCC3 (stereo not given)
inactive: UACC-257 > 100 µM | MCF7 > 100 µM | MDA-MB-435 > 100 µM | HCT-116 > 100 µM | HCC 2998 > 100 µM | SF-268 > 100 µM | SK-MEL-28 > 100 µM | HT-29 > 100 µM | RPMI-8226 > 100 µM | IGROV-1 > 100 µM | Malme-3M 41.7 µM | HOP-62 74 µM | A498 > 100 µM | SF-295 > 100 µM | HL-60 > 100 µM | MOLT-4 > 100 µM | SNB-19 94.6 µM | LOX IMVI > 100 µM | RXF 393 > 100 µM | EKVX > 100 µM

COc1ccc(C(=O)N=C2N(c3ccccc3)C(=N/c3ccccc3)/C(=N\c3ccccc3)N2c2ccccc2)cc1
inactive: UACC-257 48.2 µM | MCF7 > 100 µM | MDA-MB-435 88.3 µM | HCT-116 36.1 µM | HCC 2998 > 85.7 µM | SF-268 65.8 µM | SK-MEL-28 18.3 µM | HT-29 > 95.3 µM | RPMI-8226 > 74.6 µM | IGROV-1 54 µM | Malme-3M 20.6 µM | HOP-62 8.63 µM | A498 19.2 µM | SF-295 33.3 µM | HL-60 > 100 µM | MOLT-4 > 100 µM | SNB-19 19.2 µM | LOX IMVI 49 µM | RXF 393 2.26 µM | EKVX 48.8 µM

CN(C)/C=C/c1nnnn1-c1ccc(I)cc1
inactive: UACC-257 27 µM | MCF7 12 µM | MDA-MB-435 20.5 µM | HCT-116 10.5 µM | HCC 2998 39.6 µM | SF-268 17.5 µM | SK-MEL-28 26.7 µM | HT-29 22.9 µM | RPMI-8226 12.8 µM | IGROV-1 15.6 µM | Malme-3M 21 µM | HOP-62 31.8 µM | A498 40.8 µM | SF-295 25.8 µM | HL-60 6.21 µM | MOLT-4 15.1 µM | SNB-19 20.3 µM | LOX IMVI 16.6 µM | RXF 393 28 µM | EKVX 21.6 µM

O=C(Nc1ccccc1)N1CC(CN2CCN(c3ccccc3)CC2)OC1=O (stereo not given)
inactive: UACC-257 > 100 µM | MCF7 > 100 µM | MDA-MB-435 > 100 µM | HCT-116 > 100 µM | HCC 2998 > 100 µM | SF-268 > 100 µM | SK-MEL-28 > 100 µM | HT-29 > 100 µM | RPMI-8226 > 100 µM | IGROV-1 46.3 µM | Malme-3M > 100 µM | HOP-62 > 100 µM | A498 > 100 µM | SF-295 > 100 µM | HL-60 > 100 µM | MOLT-4 > 100 µM | SNB-19 > 100 µM | LOX IMVI > 100 µM | RXF 393 > 100 µM | EKVX > 100 µM

NC(CO)C(=O)NCC(=O)O (stereo not given)
inactive: UACC-257 > 100 µM | MCF7 > 100 µM | MDA-MB-435 > 100 µM | HCT-116 > 100 µM | HCC 2998 > 100 µM | SF-268 > 100 µM | SK-MEL-28 > 100 µM | HT-29 > 100 µM | RPMI-8226 > 100 µM | IGROV-1 > 100 µM | Malme-3M > 100 µM | HOP-62 > 100 µM | A498 > 100 µM | SF-295 > 100 µM | HL-60 > 100 µM | MOLT-4 > 100 µM | SNB-19 > 100 µM | LOX IMVI > 100 µM | RXF 393 > 100 µM | EKVX > 100 µM

O=c1c2cccnc2[nH]c2ccc3cn[nH]c3c12
inactive: UACC-257 > 10 µM | MCF7 7.06 µM | MDA-MB-435 > 10 µM | HCT-116 3.61 µM | HCC 2998 > 10 µM | SF-268 > 10 µM | SK-MEL-28 > 10 µM | HT-29 > 10 µM | RPMI-8226 > 10 µM | IGROV-1 3.33 µM | Malme-3M > 10 µM | HOP-62 > 10 µM | A498 > 10 µM | SF-295 > 10 µM | HL-60 4.49 µM | MOLT-4 > 10 µM | SNB-19 > 10 µM | LOX IMVI 5.58 µM | RXF 393 2.15 µM | EKVX 3.48 µM

O=C(O)CCS/C(=C\C(SCCC(=O)O)c1ccc(Cl)cc1)c1ccc(Cl)cc1 (stereo not given)
inactive: UACC-257 > 100 µM | MCF7 21.3 µM | MDA-MB-435 36.4 µM | HCT-116 21.4 µM | HCC 2998 24.2 µM | SF-268 50 µM | SK-MEL-28 45.1 µM | HT-29 43.6 µM | RPMI-8226 31 µM | IGROV-1 38.8 µM | Malme-3M 76.4 µM | HOP-62 37.5 µM | A498 19.7 µM | SF-295 33.4 µM | HL-60 36.7 µM | MOLT-4 37.2 µM | SNB-19 40.7 µM | LOX IMVI 25.5 µM | RXF 393 39.7 µM | EKVX 62.5 µM

CCCCCC(/C=C/[C@@H]1CC(=O)C[C@H]1O[Si](C)(C)C(C)(C)C)OCOCCOC (stereo not given in full)
inactive: UACC-257 3.68 µM | MCF7 3.65 µM | MDA-MB-435 2.02 µM | HCT-116 2.99 µM | HCC 2998 13.6 µM | SF-268 2.98 µM | SK-MEL-28 3.08 µM | HT-29 3.48 µM | RPMI-8226 2.61 µM | IGROV-1 3.24 µM | Malme-3M 2.35 µM | HOP-62 15.5 µM | A498 11.9 µM | SF-295 11 µM | HL-60 > 100 µM | MOLT-4 1.75 µM | SNB-19 4.52 µM | LOX IMVI 2.7 µM | RXF 393 2.24 µM | EKVX 6.31 µM

CC(CC[C@@]1(C)C(=O)CCC2O[C@]21C)[C@H]1C[C@@H](c2ccoc2)OC1=O (stereo not given in full)
inactive: UACC-257 > 100 µM | MCF7 65.6 µM | MDA-MB-435 44.1 µM | HCT-116 19.5 µM | HCC 2998 > 100 µM | SF-268 31 µM | SK-MEL-28 23.6 µM | HT-29 74.5 µM | RPMI-8226 35.5 µM | IGROV-1 67.3 µM | Malme-3M 31.5 µM | HOP-62 > 100 µM | A498 > 100 µM | SF-295 > 100 µM | HL-60 23.7 µM | MOLT-4 28.3 µM | SNB-19 > 100 µM | LOX IMVI 19.8 µM | RXF 393 17.2 µM | EKVX > 100 µM

CN(C)/N=C1\CC(c2ccccc2)C(C#N)(C#N)C1(C#N)C#N (stereo not given)
inactive: UACC-257 18.6 µM | MCF7 29.9 µM | MDA-MB-435 27.6 µM | HCT-116 17.8 µM | HCC 2998 18.7 µM | SF-268 20.1 µM | SK-MEL-28 19.2 µM | HT-29 26.1 µM | RPMI-8226 11.8 µM | IGROV-1 21.4 µM | Malme-3M 16.9 µM | HOP-62 24.4 µM | A498 18.2 µM | SF-295 23.7 µM | HL-60 2.5 µM | MOLT-4 4.53 µM | SNB-19 24.5 µM | LOX IMVI 27.5 µM | RXF 393 26.5 µM | EKVX 41.6 µM

CC[C@@H]1CC[C@@H]2[C@H](CC[C@]3(C)[C@@H](OC(C)=O)CC[C@@H]23)[C@H]1COC(C)=O
inactive: UACC-257 29.5 µM | MCF7 31.6 µM | MDA-MB-435 22.5 µM | HCT-116 16.5 µM | HCC 2998 13.4 µM | SF-268 21.6 µM | SK-MEL-28 30.8 µM | HT-29 18.2 µM | RPMI-8226 25.6 µM | IGROV-1 32.7 µM | Malme-3M 18.4 µM | HOP-62 30.4 µM | A498 26 µM | SF-295 25.2 µM | HL-60 20.7 µM | MOLT-4 16 µM | SNB-19 36.9 µM | LOX IMVI 17.4 µM | RXF 393 22.6 µM | EKVX 31.6 µM

CCOC(=O)C(Cl)(NC(=O)OCc1ccccc1)C(F)(F)F (stereo not given)
inactive: UACC-257 > 100 µM | MCF7 > 100 µM | MDA-MB-435 > 100 µM | HCT-116 > 100 µM | HCC 2998 > 100 µM | SF-268 > 100 µM | SK-MEL-28 > 100 µM | HT-29 > 100 µM | RPMI-8226 > 100 µM | IGROV-1 > 100 µM | Malme-3M > 100 µM | HOP-62 > 100 µM | A498 > 100 µM | SF-295 > 100 µM | HL-60 > 100 µM | MOLT-4 > 100 µM | SNB-19 > 100 µM | LOX IMVI > 100 µM | RXF 393 > 100 µM | EKVX > 100 µM

Nc1ccc(-c2nc3ccccc3s2)cc1
inactive: UACC-257 22 µM | MCF7 19.1 µM | MDA-MB-435 17.9 µM | HCT-116 18 µM | HCC 2998 59.7 µM | SF-268 10.3 µM | SK-MEL-28 17.1 µM | HT-29 19.4 µM | RPMI-8226 28.6 µM | IGROV-1 18.5 µM | Malme-3M 17.6 µM | HOP-62 36.9 µM | A498 29.7 µM | SF-295 29.9 µM | HL-60 24.9 µM | MOLT-4 23.1 µM | SNB-19 28.1 µM | LOX IMVI 16.8 µM | RXF 393 17.8 µM | EKVX 33.2 µM

Cc1nc2cc(/N=N/c3c(C)noc3C)ccc2[nH]1
inactive: UACC-257 44.1 µM | MCF7 18.2 µM | MDA-MB-435 21.3 µM | HCT-116 18.3 µM | HCC 2998 54.3 µM | SF-268 26.6 µM | SK-MEL-28 17.6 µM | HT-29 17.7 µM | RPMI-8226 17.9 µM | IGROV-1 12.6 µM | Malme-3M 25.9 µM | HOP-62 27.1 µM | A498 11.1 µM | SF-295 23.4 µM | HL-60 13.1 µM | MOLT-4 17.9 µM | SNB-19 43.9 µM | LOX IMVI 16.6 µM | RXF 393 16.3 µM | EKVX 18.2 µM
